These results are taken from US11407741B2, “Compounds and their use as selective inhibitors of caspase-2” (priority 2017, dated 2022).

The test system of experiment [1] is hippocampal neurons intoxicated with Aβ1-42 oligomers. Briefly: Protection against Abeta neurotoxicity in primary hippocampal neurons in microfluidic chambers. The class given is cell-based, mice. To be noted: Aβ intoxicated cells not pretreated, 6 h of intoxication, vs non-intoxicated. From the text:
Hippocampus are micro-dissected from E16 embryos of C57B16/J wt mice (Rene Janvier, France) in cold Gey's Balanced Salt Solution (GBSS, Sigma) supplemented with 0.1% glucose (Life technologies).
Dissected structures are digested with papain (20 U/ML in DMEM, Sigma; St. Louis, Mo., USA) and mechanically dissociated in the presence of DNAse. Hippocampal cells are then rinsed and re-suspended in DMEM (Life Technologies, Inc., Gaithersburg, Md., USA) to a final density of 18 million cells/ml in Neurobasal (Life technologies) and Glutamax (0.1% LifeTechnologies) supplemented with B27 (1/50) and penicilline/sptreptomycine 1% (Gibco).
This cell suspension is then used to fill the reservoirs of microfluidic chambers, as described (Peyrin et al, 2011 Lab Chips 11(21):3663; Deleglise et al, 2014 Acta Neuropathologica Comm. 2: 145). Microfluidic chips are placed in plastic Petri dishes containing H20-EDTA to prevent evaporation and incubated at 37° C. in a humid 5% CO2 atmosphere. The culture medium is renewed every seven days.
Oligomeric form of Aβ1-42 (Tocris Bioscience, MN, USA), is produced according to Stine W B et al (2003) in J Biol Chem 278, pp 11612-11622 and can be controlled by electron microscopy as in Deleglise B et al. in Acta Neuropathol Commun. 2014; 2: 145).
Briefly, Aβ1-42 lyophilized peptides are solubilized at 1 mM in 1, 1, 1, 3, 3, 3,-hexafluoro-2-propanol (HFIP, Sigma Aldrich). After 30 min of incubation at RT, HFIP is evaporated for 12 h under chemical hood and peptides are dried for 1 h (with a Speed Vac at 4° C.). Then, 5 mM Aβ peptide stock solutions are obtained by resolubilization at in dimethylsulfoxide (DMSO, Sigma Aldrich). To obtain oligomers, Aβ peptide stock solution is diluted in cold phenol free DMEM-F12 medium (Life Technologies) to a final concentration of 100 μM. The solution is then incubated 24 h at 4° C. Soluble Aβ oligomer fraction is collected from the supernatant after a centrifugation step at 20 000 g (10 min; 4° C.), and stored at −80° C. until use.
After 18 days of culture in micro fluidic chambers, hippocampal cells are pre-incubated for 1 h with compounds of the invention prior diluted in phenol free DMEM-F12 medium or in phenol free DMEM-F12 medium alone as a control solution. Cells are then intoxicated for 3 h to 6 h or 24 h with 10 or 100 nm of Aβ1-42 oligomers (or with phenol free DMEM-F12 medium alone as a control solution). After the intoxication step, cells are fixed in 4% paraformaldehyde (PFA, Sigma; St. Louis, Mo., USA) for 20 min RT, and labelled as explained below to evaluate synapses status, cell death or axonal degeneration.
Briefly, after the fixation step, cultures cells are washed twice with PBS+Azide 0.1% for 5 min and permeabilized for 10 min with 0.2% Triton X-100 and 0.1% BSA (Bovine Serum Albumin, Sigma) in PBS+Azide 0.1%. Saturation step is then realized by incubating cells during 30 min in PBS+Azide 0.1%+BSA1%. Primary antibodies are then added and the samples incubated at 4° C. overnight in PBS. Afterwards, samples are rinsed twice for 5 min with PBS+Azide 0.1% and further incubated with the corresponding secondary antibody together with phalloidin conjugated to Alexa Fluor 555 for 2 h RT. The chips were then rinsed twice with PBS+Azide 0.1%.
The following antibodies are used: rabbit polyclonal anti-MAP-2 (AB5622; 1/400, MILLIPORE), mouse monoclonal Anti-Bassoon SAP7F407; 1:400, Enzo LifeSciences). Species-specific secondary antibodies coupled to Alexa 350, 488 or 500 are used (1/500, Life Technologies, Inc., Gaithersburg, Md., USA). Phalloidin conjugated to Alexa Fluor 555 (1/500, EnzoLifeTechnologies) is used to stain F-actin.
Images are acquired with an Axio-observer Zl (Zeiss, Germany) fitted with a cooled CCD camera (CoolsnapHQ2, Ropert Scientific). The microscope is controlled with Metamorph and Micro-manager software. Images were analyzed using ImageJ software.

A further experiment concerns the target T1, Caspase-3 (Homo sapiens, UniProt P42574).
T1 construct: the Caspase-2 and Caspase-3 are human recombinant active enzymes; purchased R&D Systems 707-C3-010/CF
T1 sequence (P42574 29-175 limits assumed): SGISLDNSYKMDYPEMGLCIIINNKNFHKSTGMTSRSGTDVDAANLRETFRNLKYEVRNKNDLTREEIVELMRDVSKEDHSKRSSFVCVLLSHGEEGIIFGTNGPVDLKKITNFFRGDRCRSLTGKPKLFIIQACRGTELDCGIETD
T1 sequence (P42574 176-277 limits assumed): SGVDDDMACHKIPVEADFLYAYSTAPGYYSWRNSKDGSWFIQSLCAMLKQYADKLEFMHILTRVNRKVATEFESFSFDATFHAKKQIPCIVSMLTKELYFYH
Nature of the experiment: Caspase-3 inhibition assay for reversible inhibitors (IC50, Ki). In kind it is biochemical. Here is the method: (§1) A preliminary step in the characterization of an inhibitor is the determination of its IC50. The IC50 is the necessary concentration of an inhibitor to decrease the enzyme activity by 50% of its maximum and uninhibited value.
(§2) The compound, at different concentrations, is incubated with the enzyme and buffer for 30 minutes at 37° C. to allow formation of the Enzyme-Inhibitor complex. The reaction is initiated by addition of buffer and substrate, and then activity is measured over 15 minutes for the determination of initial velocities.
(§3) The enzyme and the inhibitor (or DMSO as control) are incubated for 30 minutes at 37° C. The complex thus formed is diluted to 100th in the buffer/substrate mixture and then the activity measurement is started over 20 minutes. The initial rate obtained for the DMSO represents the 100% activity and will serve as a reference for the quantification of the residual activity of the enzyme in the presence of the inhibitor.
(§4) The reaction is started over 20 minutes upon addition of the buffer-substrate mixture.
(§5) Initial velocity values in RFU·min^−1 are reduced to Specific Activity (SA)values (pmol/min/μg enzyme) from an AMC standard range (1 RFU→0.02 pmol).
(§6) The evolution of the ratio 1/SA as a function of 1/[S] makes it possible to obtain the so-called double-inverse graph of Lineweaver-Burk from equation 4 (eq.4) where Vmaxapp and KMapp are the parameters which vary according to the type inhibition and as a function of inhibitor concentration. The intersection of the lines obtained for increasing inhibitor concentrations makes it possible to distinguish different types of inhibitors.
A secondary graph, obtained from the values of the slopes of the Lineweaver-Burk plot as a function of the concentration of inhibitor, makes it possible to obtain the value of the Ki. Its value is given by the abscissa point at the origin. […]

The target in another experiment is T2, Casp-2 (Homo sapiens, UniProt P42575).
T2 construct: the Caspase-2 and Caspase-3 are human recombinant active enzymes; purchased Enzo Life ALX-201-057-U100
T2 sequence (P42575 170-325 limits assumed): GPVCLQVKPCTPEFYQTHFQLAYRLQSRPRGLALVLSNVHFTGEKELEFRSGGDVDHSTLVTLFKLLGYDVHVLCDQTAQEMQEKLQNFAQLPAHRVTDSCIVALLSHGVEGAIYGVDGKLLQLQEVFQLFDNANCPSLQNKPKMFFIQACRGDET
T2 sequence (P42575 348-452 limits assumed): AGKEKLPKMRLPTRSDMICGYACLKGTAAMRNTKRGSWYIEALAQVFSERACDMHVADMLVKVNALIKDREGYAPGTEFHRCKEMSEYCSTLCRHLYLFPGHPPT
Nature of the experiment: Caspase-2 inhibition assay for reversible inhibitors (IC50, Ki, dilution method). The class given is biochemical. The settings on record: for IC50: 30 minutes at 37° C. preincubation; for Ki: secondary plot of Lineweaver-Burk. Here is the method: as §1, §2, §3, §4, §5, §6
A secondary graph, obtained from the values of the slopes of the Lineweaver-Burk plot as a function of the concentration of inhibitor, makes it possible to obtain the value of the Ki. Its value is given by the abscissa point at the origin.
The initial velocity V0 is expressed from equation 8 (eq.8), where Vmax is the maximum reaction rate (reached when the enzyme is saturated with substrate), [S] the substrate concentration, KM is the Michaelis-Menten constant (substrate concentration corresponding to Vmax/2), Ki is the dissociation constant which accounts for the affinity of the inhibitor for the enzyme.

Another experiment addresses T3, Caspase-2 (Homo sapiens, UniProt P42575).
T3 construct: the Caspase-2 and Caspase-3 are human recombinant active enzymes; purchased Enzo Life ALX-201-057-U100
T3 sequence (P42575 170-325 limits assumed): T2 sequence (P42575 170-325 limits assumed)
T3 sequence (P42575 348-452 limits assumed): T2 sequence (P42575 348-452 limits assumed)
Briefly: Caspase-2 inhibition assay for irreversible inhibitors (kinact/KI, continuous method). The class given is biochemical. Here is the method: The efficiency of the comparative compound Δ2Me-TRP601, that is an already known group II Caspase inhibitor (inhibitor of Caspase-2, Caspase-3 and Caspase-7), has been assessed by a similar protocol described in Chauvier et al., 2011 Cell Death Dis 2011, 2:e203.
In this example, the Caspase-2 and Caspase-3 are human recombinant active enzymes that are respectively provided by Enzo Life® (ALX-201-057-U100) and R&D Systems® (707-C3-010/CF).
Caspase-2 is used at a final concentration of 0.1 nM in a “Caspase-2 buffer” containing 20 mM HEPES (pH 7.4), 5 mM DTT, 2 mM EDTA, 0.1% CHAPS and 800 mM succinate. Caspase-3 is used at a final concentration of 0.5 nM in a “Caspase-3 buffer” containing 20 mM HEPES (pH 7.4), 0.1% CHAPS, 5 mM DTT, and 2 mM EDTA.
The peptide substrates used for the enzymatic activity measurements are Ac-DEVD-AMC and Ac-VDVAD-AMC commercialized by EnzoLife® (respectively referenced ALX-260-031-M005 and ALX-260-060-M005). They are fluorogenic due to the presence of their AMC (7-amino-4-methylcoumarin) end group. The releasing of AMC enables to follow the enzymatic activity in fluorescence unit RFU over time in a 96-wells microplate.
The fluorescence values are measured at 37° C. with a spectrofluorometer with a microplate reader BMG FLUOstar OPTIMA. This apparatus is driven by the software Biolise® and is equipped with thermoelectric cooling device by Peltier effect. The mathematical analyses of the experimental data are done with the software Kaleidagraph®.
The inhibitory properties of the tested compounds are evaluated by the determination of the kinact/KI ratio regarding either Caspase-2 or Caspase-3 wherein: • kinact is the maximal inactivation rate constant, and • KI is the dissociation constant according to:
Said ratio is measured according to the continuous method (Allison R D. Curr Protoc Protein Sci. 2001 May; Chapter 3:Unit 3.5.; Chauvier et al., 2011 Cell Death Dis 2:e203; Tan et al., J Med Chem 2015, […]).
Briefly, Caspases activities were determined by monitoring the hydrolysis of fluorogenic substrates (λexc=355 nm, λem=460 nm) as a function of time, in the presence of untreated Caspases (control) or Caspases that had been incubated with a test compound, for 30 min minimum at 37° C. using a BMG Fluostar microplate reader (black 96-well microplates) and the initial velocity (V0) was determined from the linear portion of the progress curve.
Substrates and compounds were previously dissolved in DMSO at 10 mM, with the final solvent concentration kept at lower 4% (v/v). V0, relative velocities, KM and IC50 were determined from experimental data using Mars data Analysis 2.0 and Kaleidagraph softwares.
Inhibitor binding affinity (dissociation constant, KI) and first-order rate constant (k3) parameters were determined for Caspase-2 and Caspase-3 using the progress curve method. The ratio k3/KI was obtained by fitting the experimental data to the equations (F.U., fluorescence unit): […]
A continuous method of determination of the kinact/KI ratio was used for evaluating the inhibitory activity of the tested compounds against Caspase-2 and Caspase-3.
The reaction mixture is prepared by letting the enzyme and the buffer incubate at 37° C.
The tested inhibitory compounds are prepared at different concentrations (¼ IC50; ½ IC50; IC50; 2 IC50; 4 IC50) and put in the microplate.
Then the reaction mixture comprising the enzyme, the buffer and the substrate is rapidly added in the wells.
The activities of the enzyme are measured between 45 and 60 minutes.
The RFU (Relative Fluorescence Units)=f(times) curves are traced for each concentration of tested molecule according to the following equation: ((((−V0)*(exp(−kobs*m0)))+V0)/kobs*)+RFU0
in which: • V0 corresponds to the initial rate (RFU·s^−1) in the concentration of 0 of the tested inhibitory compound; • kobs is the inactivation rate constant; • RFU0 is the fluorescence value at t=0 min; and • m0 is the variable i.e. the inhibitor concentration.

Where a SMILES comes first, the peptide text is derived from it.

Regarding “Aβ alone: Oligomeric form of Aβ1-42 (Tocris Bioscience) used to intoxicate neurons [reference compound]”, in experiment [1], the “decrease in synapse number” value is about 50%.

By IC50 is commonly meant the concentration that gives 50% inhibition. A word on the Ki: it is a measure of affinity in units of concentration, obtained from inhibition or displacement. In turn, `CC(=O)N[C@H](C(=O)N[C@@H](CC(=O)O)C(=O)N[C@H](C(=O)N[C@@H](C)C(=O)N[C@H](C=O)CC(=O)O)C(C)C)C(C)C` [Ac-VDVAD-CHO] (Ac-VDVAD-aldehyde) displayed an IC50 at Caspase-3 (30 minutes at 37° C. preincubation) of 7.23 nM. Moreover, the affinity on Caspase-3 (secondary plot of Lineweaver-Burk) corresponds to a Ki of 7.68 nM. Besides, on Casp-2, the “Selectivity Indexes (KiCasp3/KiCasp2)” value is 1.3; the midpoint of inhibition, the IC50, lay at 6.9 nM; the affinity corresponds to a Ki of 6.31 nM.

On Casp-2, `CC(=O)N[C@@H](CC(=O)O)C(=O)N[C@@H](CCC(=O)O)C(=O)N[C@H](C(=O)N[C@H](C=O)CC(=O)O)C(C)C` [Ac-DEVD-CHO] gave an IC50 of 3910 ± 189 nM and a Ki of 3220 nM.

With `CC(C)[C@H](NC(=O)c1ccc2ccccc2n1)C(=O)N[C@@H](CC(=O)O)C(=O)N[C@H](C(=O)N1CC[C@H](CC(C)(C)C)[C@H]1C(=O)N[C@@H](CC(=O)O)C(=O)COc1c(F)cccc1F)C(C)C` (single isomer, unassigned) [Compound 2 enantiomer b], on Caspase-2 (human recombinant Caspase-2 0.1 nM, 37° C.), the “k3/KI Casp2” value is reported as 1 720 M^−1 · s^−1. Moreover, the “Selectivity ratio (C2/C3) (symbol)” value on Caspase-2 (ratio of k3/KI Casp2 to Casp3) is “+++ (+++: as no inhibitory activity is detectable toward casp3, selectivity is very important (>>1000).)”.
